Key:
[1] = test system: PSS patients; conditions: cited from earlier work
[2] = test system: established CD4+ T cell clones (Th0-like); test: Cytokine production (ELISA) by established CD4+ T cell clones stimulated with insolubilized anti-CD3 mAb; type: cell-based, human; conditions: for levels of IFN-?: 12 CD4+ clones, insolubilized anti-CD3 mAb, p<0.03 vs absence of RLX (3.6±0.98 ng/ml)
Experimental: To generate T cell clones, PBMC from normal subjects were seeded under limiting dilution conditions (0.3 cell/well) in six round-bottom microwell plates containing […] (6000 rad) allogeneic PBMC (as feeder cells) and PHA (1% vol/vol) in a final volume of 0.2 ml complete medium supplemented with 20 U/ml IL-2 and 10% FCS. Growing microcultures where then supplemented, at weekly intervals, with 20 U/ml IL-2 and 10^5 irradiated feeder cells. The phenotype distribution of T cell clones was assessed by flow cytometer-analysis.
(§1) To quantitate cytokine production in supernatants of TT-specific shortterm T cell lines and established T cell clones, […] were cultured in the presence of 20 ng/ml PMA plus 100 ng/ml anti-CD3 mAb. After 36 h culture, cell-free supernatants were collected, filtered, and stored in aliquots at −70° C. until used. Determination of IFN-? was performed by a commercial ELISA (Biosource International, Camarill, Calif.). […] Values of the cytokine content 5 SD over those of control supernatants obtained by stimulation of irradiated feeder cells alone were regarded as positive.
The two curves shown in FIG. 2 relate to two CD4^+ T cell clones stimulated with immobilised anti-CD3 antibody in the presence or in the absence of different concentrations of RLX for 36 h. […] Total RNA was extracted as described herein after. 1?g of RNA was reversed transcribed and cDNA were amplified and then subjected to PCR amplification with primers for IFN-? and IL4 as discussed more in detail below.
To provide unequivocal evidence of the direct effect of RLX on T cells, the activity of RLX on the IFN-? mRNA expression and IFN-? production by established T cell clones was examined. To this end, 12 CD4^+ T cells clones showing a Th0-like profile (production of both IFN-? and IL-4) were cultured in the absence of any other cell type and stimulated with insolubilized anti-CD3 mAb in the presence or absence of RLX. […] The levels of IL-4 produced by the same CD4+T cell clones were not altered by the presence of RLX.

[3] = test system: CD4+ T cell clone; test: Competitive PCR for IFN-? mRNA in a CD4+ T cell clone; type: cell-based, human
Experimental: Competitive PCRfor IFN-?was performed using a competitorcontrol fragment (PCR MIMIC; Clontech Laboratories Inc. Palo Alto, Calif., USA) according to the manufacturer's instructions. PCR MIMIC was used together with sample cDNA in the reaction mixture; sample and control cDNA were amplified with the same primers, so they competed for the same primers in the same reaction, but were distinguished on gel electrophoresis by differences in length. By knowing the amount of PCR MIMIC added to the reaction, the amount of target cDNA and therefore the initial mRNA levels could be determined. Each sample (and competitor fragment) was subjected to 25 cycles of amplification as described above.
The intensity of the bands for ?-actin obtained by RT-PCR was measured in all the samples to confirm that the same quantities of total RNA were reverse transcribed. In addition, the intensity of the bands for IFN-? obtained by PCR amplification (MIMIC and samples) and by Southern blot was also measured. A CCD video camera C3077/01 (Hamamatsu Photonics, Tokyo, Japan) interfaced with an Apple Macintosh personal computer was used. Acquisition of images was obtained with Imagequest IQBase software (Hamamatsu Photonics). Image processing and analysis was performed with the free-share software IMAGE (National Institutes of Health, Research Services, Branch NIMH, version 1.28).

[4] = test system: sensitized guinea pigs; conditions: RLX treatment; cited from earlier work
[5] = test system: established CD4+ T cell clones; test: RT-PCR of IFN-? and IL-4 mRNA in established CD4+ T cell clones; type: cell-based, human; conditions: two clones, 10^−8 M RLX vs absence
Experimental: To induce cytokine mRNA expression in established T cell clones for RNA extraction 2×10^5 T blasts from each clone were cultured with insolubilized anti-CD3 (1?g/ml). After 12 h, pellets were washed four times with PBS at pH 7.2 and kept frozen until used. Total RNA was extracted using Ultraspec RNA Isolation kit (Biotex Laboratories, Inc. Houston, Tex., USA). […] Following extraction, 1 ?g of RNA was reverse transcribed by M-MLV reverse transcriptase (Gibco-BRL, Gaithersburg, Md., USA). All cDNA were amplified with primers for ?-actin to test the quality of cDNA and then subjected to PCR amplification with primers for IFN-? and IL-4. In each PCR reaction a positive control and a negative control (without cDNA as template to exclude contamination) were included. PCR analysis was carried out in a DNA thermal cycler (Idaho Technology, Idaho Falls, ID, USA). […] The size of the amplified products was evaluated by comparison with molecular weight markers run in parallel lanes.
The intensity of the bands for ?-actin obtained by RT-PCR was measured in all the samples to confirm that the same quantities of total RNA were reverse transcribed. In addition, the intensity of the bands for IFN-? obtained by PCR amplification (MIMIC and samples) and by Southern blot was also measured. […]

[6] = test system: adherent cell-enriched fractions of PBMC (monocytes/APC); test: IL-12 and IFN-? release by adherent cell-enriched fractions of PBMC stimulated with TT; type: cell-based, human; conditions: stimulated 5 days with TT, absence vs presence of RLX
[7] = test system: TT-specific short-term T cell lines from PBMC; test: Cytokine production by TT-specific short-term T cell lines expanded with or without RLX; type: cell-based, human
Experimental: TT-specific short-term T cell lines were generated from PBMC of TT-vaccinated normal donors according to a technique described in M. P. Piccinni et al <<Progesterone favors the development of human T helper cells producing Th2-type cytokines and promotes both IL-4 production and membrane CD30 expression in established TH1 cell clones>>, in J. Immmunol., 1995, 155: 128-133.
Briefly, 10^5 PBMC in 2 ml RPMI 1640 medium supplemented with 2 mM L-glutamine, 2×10^−5M 2-ME and 5% human serum (complete medium) were stimulated in 24-well flat-bottom plates for 5 days with the antigen (0.2?g/ml TT) in the absence or in the presence of RLX at concentrations of 10^−10, 10^−9, 10^−8, 10^−7 and 10^−6 M. Human IL-2 (20 U/ml) was then added and cultures continued for another 9 days. Viable T blasts were resuspended in complete medium and tested for their antigen specificity. To this end, 2×10^4 T blasts were seeded in microplates and cocultured for 48 h with irradiated (6000 rad) autologous PBMC (5×10^4) in the presence of medium alone or 0.1 ? g/ml TT, respectively. After a 16-h pulse with 0.5 ?Ci [^3H]thimidine, cultures where harvested and radioactivity measured by liquid scintillation. The phenotype distribution of TT-specific T cells was assessed by flow cytometer analysis.
as §1
On the other hand, no effect of RLX dilution can be observed on the production of IL-4.

[8] = FIG. 1, mean values, cultures with antigen plus 200 U/ml IL-12 as printed
[9] = expanded in presence vs absence of RLX

For relaxin [RLX], the total skin score ([1]; PSS patients, control phase trial) is listed as “improvement”, the tolerability ([1]; RLX treatment compared with administration of IFN-?) is listed as “better tolerated” and the “levels of IFN-?” value ([2]; 10^−7 M RLX) is listed as 5.87±1.63 ng/m. The “levels of IFN-?” value ([2]; 10^−8 M RLX) was 8.20 ± 2.27 ng/mL, the “levels of IL-4” value ([2]; same 12 CD4+ T cell clones, presence vs absence of RLX) was “not altered” and the “increase of IFN-? mRNA (competitive PCR, image analysis)” value ([3]; T cell clone no. 2, 10^−8 M RLX vs absence) was “approximately tenfold increase”. The “IFN-? mRNA amount (competitive PCR)” value ([3]; T cell clone no. 2, presence of 10^−8 M RLX, absence of RLX 4.1×10^−3) was 5×10^−2 attomol/? I, the allergic asthma-like reaction [4] was “reduced” and the bronchial hyperresponsiveness [4] was “reduced”. The “IFN-? mRNA expression (RT-PCR)” value [5] was “higher levels”, the “IL-4 mRNA levels (RT-PCR)” value [5] was “the same” and the “concentration of IFN-? in supernatants” value [6] was “no significant differences”. The “concentration of IL-12 in supernatants” value [6] was “no significant differences”, the “production of IFN-? in TT-specific T cell lines as a function of RLX concentration (FIG. 1)” value [7, 8] was “increases with the concentration of RLX” and the “production of IL-4 in TT-specific T cell lines as a function of RLX concentration (FIG. 1)” value [7, 8] was “no effect”. The “production of IFN-? in TT-specific T cells” value ([7]; expanded in presence of RLX at 10^−9, 10-8 and 10^−7 M vs absence of RLX) was “significantly higher”, the “production of IL-4 in TT-specific T cells” value [7, 9] was “no significant differences” and the “production of IL-5 in TT-specific T cells” value [7, 9] was “no significant differences”. The “production of IL-6 in TT-specific T cells” value [7, 9] was “no significant differences”.
